Data as given in the supplement of paper PMC10307832.

Tests used:
Experiment in all cases: relative viability (nuclei count vs DMSO), 5 days (fraction); higher = more cells survive
[1] = compound: COC1=C(C=C(C=C1)C2=CC3=NC=CN3C(=N2)NC4=C(C=CC=N4)C(=O)N)OC [BAY61-3606] + Cc1cc(Nc2cc(N3CCN(C)CC3)nc(Sc3ccc(NC(=O)C4CC4)cc3)n2)n[nH]1 [Tozasertib] (partner 0.1 µM)
Procedure, shortened: (§1)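 Lung cancer cell lines were pin-tool dosed in 1536-well plates on the day after seeding, with either a lone drug or a fixed anchor-drug dose plus five library-drug doses (not always all listed) in √10 steps. Nuclei were counted on 4× images after 5 days. Relative viability is the ratio of treated-well to vehicle-well nuclei counts, with each value a median of duplicate plates.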

[2] = compound: COC1=C(C=C(C=C1)C2=CC3=NC=CN3C(=N2)NC4=C(C=CC=N4)C(=O)N)OC [BAY61-3606] + CS(=O)(=O)N1CCN(Cc2cc3nc(-c4cccc5[nH]ncc45)nc(N4CCOCC4)c3s2)CC1 [Pictilisib] (partner 1 µM)
Procedure, shortened: as §1

[3] = compound: COC1=C(C=C(C=C1)C2=CC3=NC=CN3C(=N2)NC4=C(C=CC=N4)C(=O)N)OC [BAY61-3606] + C[C@]1(O)C[C@@H](c2nc(-c3ccc4ccc(-c5ccccc5)nc4c3)c3c(N)nccn32)C1 [Linsitinib] (partner 1 µM)
Procedure, shortened: as §1

[4] = compound: COC1=C(C=C(C=C1)C2=CC3=NC=CN3C(=N2)NC4=C(C=CC=N4)C(=O)N)OC [BAY61-3606] + COc1cccc2cc(-c3nc([C@H]4CC[C@H](C(=O)O)CC4)n4ncnc(N)c34)[nH]c12 [OSI-027] (partner 0.5 µM)
Procedure, shortened: as §1

| Cell Line | relative viability ([1]; first compound 0.02 µM) | relative viability ([1]; first compound 0.06325 µM) | relative viability ([1]; first compound 0.2 µM) | relative viability ([1]; first compound 0.6325 µM) | relative viability ([1]; first compound 2 µM) | relative viability ([2]; first compound 0.02 µM) | relative viability ([2]; first compound 0.06325 µM) | relative viability ([2]; first compound 0.2 µM) | relative viability ([2]; first compound 0.6325 µM) | relative viability ([2]; first compound 2 µM) | relative viability ([3]; first compound 0.02 µM) | relative viability ([3]; first compound 0.06325 µM) | relative viability ([3]; first compound 0.2 µM) | relative viability ([3]; first compound 0.6325 µM) | relative viability ([3]; first compound 2 µM) | relative viability ([4]; first compound 0.02 µM) | relative viability ([4]; first compound 0.06325 µM) | relative viability ([4]; first compound 0.2 µM) | relative viability ([4]; first compound 0.6325 µM) | relative viability ([4]; first compound 2 µM) |
| --- | --- | --- | --- | --- | --- | --- | --- | --- | --- | --- | --- | --- | --- | --- | --- | --- | --- | --- | --- | --- |
| NCI-H1437 | 0.402 | 0.391 | 0.428 | 0.416 | 0.374 | 0.532 | 0.44 | 0.507 | 0.442 | 0.391 | 1.1 | 1.1 | 1.01 | 1.03 | 0.813 | 0.941 | 0.924 | 0.921 | 0.936 | 0.784 |
| NCI-H1651 | 0.726 | 0.488 | 0.503 | 0.55 | 0.356 | 0.628 | 0.689 | 0.623 | 0.531 | 0.401 | 0.908 | 0.909 | 0.91 | 1.12 | 0.823 | 0.702 | 0.627 | 0.664 | 0.637 | 0.499 |
| NCI-H1666 | 0.6 | 0.572 | 0.492 | 0.473 | 0.458 | 0.521 | – | 0.447 | 0.375 | 0.395 | 0.954 | – | 0.76 | 0.954 | 0.831 | 0.817 | 0.84 | 0.824 | 0.894 | 0.841 |
| NCI-H1734 | 0.238 | 0.243 | 0.222 | 0.227 | 0.196 | 0.46 | 0.459 | 0.485 | 0.406 | 0.324 | 0.827 | 0.853 | 0.849 | 0.866 | 0.607 | 0.605 | 0.523 | 0.529 | 0.542 | 0.372 |
| NCI-H1755 | 0.681 | 0.422 | 0.49 | 0.438 | 0.403 | 0.532 | 0.35 | 0.463 | 0.415 | 0.385 | 1.06 | 1.04 | 1.03 | 0.981 | 0.974 | 0.743 | 0.657 | 0.701 | 0.712 | 0.671 |
| NCI-H1793 | 0.313 | 0.227 | – | 0.203 | 0.222 | 0.434 | 0.381 | 0.303 | 0.352 | 0.434 | 0.797 | 0.892 | 1 | 1.27 | 0.89 | 0.259 | 0.276 | – | 0.255 | 0.235 |
| NCI-H1915 | 0.416 | 0.329 | 0.365 | 0.277 | 0.152 | 0.999 | 0.99 | 0.739 | 0.884 | 0.685 | 1.1 | 1.06 | 1.05 | 1.06 | 0.854 | 0.623 | 0.632 | 0.571 | 0.662 | 0.443 |
| NCI-H1944 | 0.256 | 0.224 | 0.239 | 0.249 | 0.215 | 0.384 | 0.346 | 0.337 | 0.326 | 0.281 | 1.31 | 1.17 | 1.1 | 1.13 | 1.27 | 0.403 | 0.377 | 0.363 | 0.373 | 0.352 |
| NCI-H1975 | 0.763 | 0.521 | 0.323 | 0.257 | 0.11 | 0.354 | 0.238 | 0.253 | 0.262 | 0.19 | 1.1 | 0.813 | 0.891 | 0.837 | 0.615 | 0.797 | 0.756 | 0.692 | 0.635 | 0.333 |
| NCI-H1993 | 0.521 | 0.582 | 0.621 | 0.59 | 0.577 | 0.871 | 0.764 | 0.755 | 0.868 | 0.804 | 0.688 | 0.748 | 0.723 | 0.7 | 0.741 | 0.586 | 0.583 | 0.505 | 0.564 | 0.587 |
| NCI-H2009 | 0.847 | 0.648 | 0.67 | 0.651 | 0.511 | 0.897 | 0.849 | 0.851 | 0.751 | 0.52 | 1.19 | 1.28 | 1.18 | 1.18 | 1.07 | 0.754 | 0.686 | 0.681 | 0.597 | 0.348 |
| NCI-H2023 | 0.359 | 0.225 | 0.232 | 0.197 | 0.118 | 0.275 | 0.264 | 0.277 | 0.251 | 0.206 | 0.703 | 0.681 | 0.779 | 0.715 | 0.557 | 0.471 | 0.359 | 0.37 | 0.402 | 0.19 |
| NCI-H2085 | 0.809 | 0.531 | 0.546 | 0.481 | 0.345 | 0.376 | 0.487 | 0.499 | 0.459 | 0.601 | 0.977 | 0.931 | 0.853 | 0.813 | 0.871 | 0.868 | 0.901 | 0.711 | 0.769 | 0.53 |
| NCI-H2087 | 0.223 | 0.253 | 0.166 | 0.176 | 0.157 | 1.05 | 0.937 | 0.865 | 0.878 | 0.666 | 0.883 | 1.13 | 0.905 | 1.16 | 0.732 | 0.47 | 0.577 | 0.557 | 0.555 | 0.417 |
| NCI-H2126 | 0.895 | 0.485 | 0.801 | 0.945 | 0.331 | 0.543 | 0.503 | 0.492 | 0.51 | 0.447 | 0.757 | 0.687 | 0.742 | 0.749 | 0.691 | 0.729 | 0.616 | 0.751 | 0.695 | 0.655 |
| NCI-H2228 | 0.274 | 0.173 | 0.147 | 0.16 | 0.159 | 0.432 | 0.34 | 0.421 | 0.505 | 0.341 | 0.663 | 0.552 | 0.668 | 0.714 | 0.496 | 0.885 | 0.451 | 0.594 | 0.495 | 0.293 |
